Measured values: patent US20150344457A1, “METHODS OF INHIBITING PRMT5” (EPIZYME, INC., priority 2012, published 2015)

Key:
Z-138 cells [1] = assay: Z-138 Proliferation Assay (Cell Titer Glo, 5 days); assay type: cell-based; conditions: Homo sapiens
How it was run: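 Exponentially growing Z-138 cells (10,000 cells/ml) in RPMI 1640 with 10% FBS are exposed to nine-point 3-fold dilutions (final top concentration 20 μM, 0.2% DMSO) for 5 days at 37° C. Viability is measured as ATP by CellTiter-Glo luminescence. The 50% inhibitory concentration comes from a 4-parameter fit.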

Z-138 cells [2] = assay: Z-138 Methylation Assay (In Cell Western for symmetric di-methyl arginine and DNA content); assay type: cell-based; conditions: Homo sapiens
How it was run: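 Z-138 cells at 50,000 cells/mL exposed to compound 96 h at 37 °C, then attached to poly-D-lysine plates, fixed with paraformaldehyde and probed with anti-symmetric di-methyl arginine plus DRAQ5 DNA stain. 800/700 nm ratio normalized to DMSO and 3 μM reference controls; IC50 from triplicate wells.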

[3] = 120 h, Table A-2, 5 days, top concentration 20 μM
[4] = Table A-2, 96 hours, symmetric di-methyl arginine, read-out: ICW EC50

| Structure (SMILES) | EC50 (Z-138 cells [2]; Table D-2, read-out: ICW EC50) [µM] | EC50 (Z-138 cells [2]; [4]) [µM] | EC50 (Z-138 cells [1]; Table D-2) [µM] | EC50 (Z-138 cells [1]; [3]) [µM] |
| --- | --- | --- | --- | --- |
| O=C1NCc2ccc(-c3cccc(OCC(O)CN4CCc5ccccc5C4)c3)cc21 (centres unmarked) [Compound D148] | 1 to 10 |  | 10 to 40 |  |
| O=C(COc1cccc(CN2CCOCC2)c1)NCC(O)CN1CCc2ccccc2C1 (centres unmarked) [Compound A75] |  | < 0.1 |  | 1 to 10 |
| OC(COc1cccc(-c2ccccc2Oc2ccccc2)c1)CN1CCc2ccccc2C1 (centres unmarked) [Compound D167] | 1 to 10 |  | > 20 |  |
| O=C(COc1ccccc1N1CCNCC1)NCC(O)CN1CCc2ccccc2C1 (centres unmarked) [Compound A79] |  | 0.101 to 1 |  | 1 to 10 |
| OC(COc1cccc(-c2ccc(C(F)(F)F)cc2Cl)c1)CN1CCc2ccccc2C1 (centres unmarked) [Compound D127] | 10 to 40 |  | > 20 |  |
| O=C(COc1ccccc1N1CCOCC1)NC[C@H](O)CN1CCc2ccccc2C1 [Compound A77] |  | < 0.1 |  | 1 to 10 |
| O=C(COc1cccc(NC2CCOCC2)c1)NCC(O)CN1CCc2ccccc2C1 (centres unmarked) [Compound A93] |  | < 0.1 |  | 1 to 10 |
| CN(C)c1ncc(-c2cccc(OCC(O)CN3CCc4ccccc4C3)c2)cn1 (centres unmarked) [Compound D125] | 1 to 10 |  | 10 to 40 |  |
| OC(COc1cccc(-c2ccccc2C(F)(F)F)c1)CN1CCc2ccccc2C1 (centres unmarked) [Compound D132] | 1 to 10 |  | > 20 |  |
| Cn1cnc2ccc(-c3cccc(NCC(O)CN4CCc5ccccc5C4)c3)cc21 (centres unmarked) [Compound D102] | 0.101 to 1 |  | 1 to 10 |  |
| CS(=O)(=O)c1ccccc1-c1cccc(OCC(O)CN2CCc3ccccc3C2)c1 (centres unmarked) [Compound D131] | 1 to 10 |  | > 20 |  |
| OC(COc1cccc(-c2ccc(C(F)(F)F)cc2C(F)(F)F)c1)CN1CCc2ccccc2C1 (centres unmarked) [Compound D124] | 10 to 40 |  | > 20 |  |
| OC(COc1cccc(-c2ccc3[nH]ncc3c2)c1)CN1CCc2ccccc2C1 (centres unmarked) [Compound D107] | 1 to 10 |  | > 20 |  |
| OC(COc1cccc(-c2cccnc2F)c1)CN1CCc2ccccc2C1 (centres unmarked) [Compound D139] | 1 to 10 |  | > 20 |  |
| O=C(COc1c(CN2CCOCC2)ccc2cccnc12)NC[C@H](O)CN1CCc2ccccc2C1 [Compound A94] |  | 0.101 to 1 |  | 10 to 50 |
| CN1C(=O)COc2cccc(OCC(=O)NCC(O)CN3CCc4ccccc4C3)c21 (centres unmarked) [Compound A80] |  | 0.101 to 1 |  | 10 to 50 |
| O=C(COc1cccc2nccnc12)NCC(O)CN1CCc2ccccc2C1 (centres unmarked) [Compound A92] |  | < 0.1 |  | 1 to 10 |
| NC(=O)c1cccc(-c2cccc(OCC(O)CN3CCc4ccccc4C3)c2)c1 (centres unmarked) [Compound D171] | 1 to 10 |  | > 20 |  |
| O=C(c1cccc(-c2cccc(OCC(O)CN3CCc4ccccc4C3)c2)c1)N1CCCC1 (centres unmarked) [Compound D185] | 1 to 10 |  | 10 to 40 |  |
| Cn1cnc2ccc(-c3ccnc(NCC(O)CN4CCc5ccccc5C4)n3)cc21 (centres unmarked) [Compound D119] | 0.101 to 1 |  | 1 to 10 |  |
| Cn1ccc2cnc(-c3cccc(OCC(O)CN4CCc5ccccc5C4)c3)nc21 (centres unmarked) [Compound D141] | 0.101 to 1 |  | > 20 |  |
| CN(C)c1ccc(-c2cccc(OCC(O)CN3CCc4ccccc4C3)c2)cc1 (centres unmarked) [Compound D151] | 1 to 10 |  | > 20 |  |
| Cn1nccc1C(=O)Nc1cccc(OCC(O)CN2CCc3ccccc3C2)c1 (centres unmarked) [Compound D160] | 1 to 10 |  | > 20 |  |

More lines, main results first:

| EC50 (Z-138 cells [2]; Table D-2, read-out: ICW EC50) [µM] | EC50 (Z-138 cells [2]; [4]) [µM] | Structure (SMILES) | EC50 (Z-138 cells [1]; Table D-2) [µM] | EC50 (Z-138 cells [1]; [3]) [µM] |
| --- | --- | --- | --- | --- |
| 1 to 10 |  | O=C1COc2ccc(-c3cccc(OCC(O)CN4CCc5ccccc5C4)c3)cc2N1 (centres unmarked) [Compound D156] | 10 to 40 |  |
| 1 to 10 |  | O=C(Nc1cccc(OCC(O)CN2CCc3ccccc3C2)c1)c1cnccn1 (centres unmarked) [Compound D145] | > 20 |  |
| 1 to 10 |  | OC(COc1cccc(-c2ccc3ncn(-c4ccccc4)c3c2)c1)CN1CCc2ccccc2C1 (centres unmarked) [Compound D104] | > 20 |  |
|  | 0.101 to 1 | CN1CCN(c2ccccc2OCC(=O)NC[C@H](O)CN2CCc3ccccc3C2)CC1 [Compound A84] |  | 1 to 10 |
| 1 to 10 |  | Cc1ccc(F)c(-c2cccc(OCC(O)CN3CCc4ccccc4C3)c2)c1 (centres unmarked) [Compound D138] | > 20 |  |
|  | 0.101 to 1 | O=C(COc1cccc2c1CCNC2)NCC(O)CN1CCc2ccccc2C1 (centres unmarked) [Compound A91] |  | 1 to 10 |
| 1 to 10 |  | Cn1ncc2ccc(-c3cc(COCC(O)CN4CCc5ccccc5C4)on3)cc21 (centres unmarked) [Compound D136] | > 20 |  |
| 1 to 10 |  | CC(C)(C)OCc1cccc(-c2cccc(OCC(O)CN3CCc4ccccc4C3)c2)c1 (centres unmarked) [Compound D150] | > 20 |  |
|  | 0.101 to 1 | O=C(COc1ccc2c(cnn2C2CCNC2)c1)NCC(O)CN1CCc2ccccc2C1 (centres unmarked) [Compound A95] |  | 10 to 50 |
| 0.101 to 1 |  | O=c1[nH]c2ccc(-c3cccc(OCC(O)CN4CCc5ccccc5C4)c3)cc2[nH]1 (centres unmarked) [Compound D109] | 10 to 40 |  |
| 1 to 10 |  | CNC(=O)c1cccc(-c2cccc(OCC(O)CN3CCc4ccccc4C3)c2)c1 (centres unmarked) [Compound D186] | > 20 |  |
| > 20 |  | COC(=O)c1cncc(-c2cccc(OCC(O)CN3CCc4ccccc4C3)c2)c1 (centres unmarked) [Compound D180] | > 20 |  |
| 1 to 10 |  | CS(=O)(=O)Nc1ccc(-c2cccc(OCC(O)CN3CCc4ccccc4C3)c2)cc1 (centres unmarked) [Compound D129] | 10 to 40 |  |
| 1 to 10 |  | Cn1cnc(C(=O)Nc2cccc(OCC(O)CN3CCc4ccccc4C3)c2)c1 (centres unmarked) [Compound D183] | > 20 |  |
| 10 to 40 |  | OC(COc1cccc(-c2ccc3cnoc3c2)c1)CN1CCc2ccccc2C1 (centres unmarked) [Compound D166] | > 20 |  |
| 1 to 10 |  | Cn1ncc2cc(-c3cccc(OCC(O)CN4CCc5ccccc5C4)c3)ccc21 (centres unmarked) [Compound D108] | 10 to 40 |  |

| EC50 (Z-138 cells [2]; Table D-2, read-out: ICW EC50) [µM] | EC50 (Z-138 cells [2]; [4]) [µM] | Structure (SMILES) | EC50 (Z-138 cells [1]; Table D-2) [µM] | EC50 (Z-138 cells [1]; [3]) [µM] |
| --- | --- | --- | --- | --- |
| 0.101 to 1 |  | CC(=O)Nc1cccc(-c2cccc(OCC(O)CN3CCc4ccccc4C3)c2)c1 (centres unmarked) [Compound D169] | > 20 |  |
| 1 to 10 |  | Cc1cn(C)c2cc(-c3cccc(OCC(O)CN4CCc5ccccc5C4)c3)ccc12 (centres unmarked) [Compound D187] | > 20 |  |
| 1 to 10 |  | NC(=O)c1ccc(-c2cccc(OCC(O)CN3CCc4ccccc4C3)c2)cc1 (centres unmarked) [Compound D152] | > 20 |  |
| 1 to 10 |  | OC(COc1cccc(-c2csc3ccccc23)c1)CN1CCc2ccccc2C1 (centres unmarked) [Compound D170] | > 20 |  |
| 10 to 40 |  | OC(COc1cccc(-c2cc(OC(F)(F)F)ccc2Cl)c1)CN1CCc2ccccc2C1 (centres unmarked) [Compound D200] | > 20 |  |
|  | 0.101 to 1 | CN(C)CCOc1ccccc1OCC(=O)NC[C@H](O)CN1CCc2ccccc2C1 [Compound A88] |  | 10 to 50 |
| 0.101 to 1 |  | Cn1cnc2cnc(-c3cccc(OCC(O)CN4CCc5ccccc5C4)c3)nc21 (centres unmarked) [Compound D191] | 1 to 10 |  |
| 1 to 10 |  | Cn1cnc2ccc(-c3cccc(NCC(O)CN4CCc5ccccc5C4)n3)cc21 (centres unmarked) [Compound D117] | > 20 |  |
|  | 0.101 to 1 | C[C@H](Oc1cccc2cccnc12)C(=O)NC[C@H](O)CN1CCc2ccccc2C1 [Compound A76] |  | 1 to 10 |
| 10 to 40 |  | COc1ccc(-c2cccc(OCC(O)CN3CCc4ccccc4C3)c2)cc1Cl (centres unmarked) [Compound D168] | > 20 |  |
| 1 to 10 |  | OC(COc1cccc(-c2ccc3ncoc3c2)c1)CN1CCc2ccccc2C1 (centres unmarked) [Compound D188] | 10 to 40 |  |
| 0.101 to 1 |  | Cn1cnc2ccc(-c3cccc(OC[C@H](O)CN4CCc5ccccc5C4)c3)cc21 [Compound D174] | 1 to 10 |  |
| 1 to 10 |  | Cn1ncc2ccc(-c3cccc(OCC(O)CN4CCc5ccccc5C4)c3)cc21 (centres unmarked) [Compound D106] | > 20 |  |
|  | 0.101 to 1 | O=C(COc1ccccc1OCCN1CCOCC1)NC[C@H](O)CN1CCc2ccccc2C1 [Compound A86] |  | 10 to 50 |
| 1 to 10 |  | COc1ccc(Cl)cc1-c1cccc(OCC(O)CN2CCc3ccccc3C2)c1 (centres unmarked) [Compound D134] | > 20 |  |
| 0.101 to 1 |  | OC(COc1cccc(-c2ccc3ncn(C4CCOCC4)c3c2)c1)CN1CCc2ccccc2C1 (centres unmarked) [Compound D103] | 1 to 10 |  |
